Active and inactive are the calls of the source.
Assays:
Streptococcus [1] = experiment: GAS UMAA2166 growth inhibition – luminescence, BacTiterGlo, counter-screen for streptokinase expression inhibitor project, dose response (AID 1915); format: functional, organism-based;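 note: potency for reduction of bacterial viability or growth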
Streptococcus [2] = experiment: Luminescence Microorganism-Based Dose Response Follow up to Identify Compounds Cytotoxic to Streptococcus. [Related pubchem assays: 1677 (Project Summary), 1915, 1914, 1902 (Retest at Dose), 1900 (Counter Screen), 1662 (Primary HTS)]; format: functional, organism-based
Streptokinase A = biological target: T1, Streptokinase A (Streptococcus pyogenes serotype M1, UniProt P10520); experiment: viability-normalized secreted streptokinase activity reduction – plasminogen activation absorbance, OD405, dose response (AID 1914); format: functional, Streptococcus pyogenes M1 GAS;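 note: secreted streptokinase activity via plasminogen activation per viability signal from cell pellet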
T1 sequence (P10520 whole entry): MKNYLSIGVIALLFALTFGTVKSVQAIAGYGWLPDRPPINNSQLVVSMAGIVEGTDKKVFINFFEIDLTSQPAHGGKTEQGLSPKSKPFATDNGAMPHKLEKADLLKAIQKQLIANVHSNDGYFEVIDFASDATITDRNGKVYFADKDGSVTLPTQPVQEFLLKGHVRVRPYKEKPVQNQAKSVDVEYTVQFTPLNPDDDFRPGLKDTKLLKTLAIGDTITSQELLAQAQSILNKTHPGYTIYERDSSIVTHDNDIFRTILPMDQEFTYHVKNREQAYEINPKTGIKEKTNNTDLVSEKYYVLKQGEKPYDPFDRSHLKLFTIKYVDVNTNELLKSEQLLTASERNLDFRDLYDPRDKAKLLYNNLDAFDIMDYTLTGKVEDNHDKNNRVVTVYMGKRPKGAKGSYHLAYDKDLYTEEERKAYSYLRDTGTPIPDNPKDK

[3] = system: Streptococcus sp. 'group A'; experiment: Streptococcus pyogenes SK(-)GAS viability under kanamycin – luminescence, BacTiterGlo, confirmation, counter-screen for streptokinase expression inhibitor project, dose response (AID 1900); format: functional, organism-based
Staphylococcus aureus = experiment: Inhibitors of Bacterial Quorum Sensing Structure Activity Relationship (SAR) Analysis: Dose Response Assay. [Related pubchem assays: 700, 527 ]; format: functional, organism-based
[4] = biological target: Cyclin-dependent kinase 5/CDK5 activator 1 (Homo sapiens, UniProt Q00535); experiment: blockade of human CDK5 activity – biochemical, cherry-picked samples, set 2, dose response (AID 504545)
Chain of Cyclin-dependent kinase 5/CDK5 activator 1 (Q00535 whole entry): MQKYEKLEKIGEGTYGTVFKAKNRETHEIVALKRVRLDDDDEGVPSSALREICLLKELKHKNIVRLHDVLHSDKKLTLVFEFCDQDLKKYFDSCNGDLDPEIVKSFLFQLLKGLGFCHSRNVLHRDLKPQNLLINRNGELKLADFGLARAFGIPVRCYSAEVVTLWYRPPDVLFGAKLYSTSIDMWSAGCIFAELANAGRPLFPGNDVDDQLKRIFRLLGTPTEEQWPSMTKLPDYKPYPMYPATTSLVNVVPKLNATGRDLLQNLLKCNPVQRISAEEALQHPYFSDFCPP
Chain of Cyclin-dependent kinase 5/CDK5 activator 1 (Q15078 whole entry, further chain): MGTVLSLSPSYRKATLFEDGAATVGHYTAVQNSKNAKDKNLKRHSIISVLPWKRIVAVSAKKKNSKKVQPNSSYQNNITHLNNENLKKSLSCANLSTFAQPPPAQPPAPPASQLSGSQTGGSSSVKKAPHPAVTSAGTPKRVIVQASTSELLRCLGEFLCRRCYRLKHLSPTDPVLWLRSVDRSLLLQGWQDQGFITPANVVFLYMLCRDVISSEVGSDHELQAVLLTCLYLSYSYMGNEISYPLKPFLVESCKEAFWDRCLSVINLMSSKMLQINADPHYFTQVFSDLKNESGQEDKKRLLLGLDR

[5] = biological target: T2, Endoribonuclease toxin MazF (Escherichia coli K-12, UniProt P0AE70); experiment: activation of MazEF endoribonuclease cleavage – biochemical, fluorescence, single-stranded RNA substrate, uHTS hits, dose response (AID 588481); format: functional
T2 sequence (P0AE70 whole entry): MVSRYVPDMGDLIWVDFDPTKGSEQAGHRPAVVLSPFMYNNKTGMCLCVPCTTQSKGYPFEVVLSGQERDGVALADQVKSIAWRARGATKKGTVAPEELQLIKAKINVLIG

[6] = biological target: Ras and Rab interactor 1/Tyrosine-protein kinase ABL1 (Homo sapiens, UniProt P00519+Q13671); format: functional;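 note: biochemical TR-FRET dose-response test measuring inhibition of binding between Rin1 and Abl proteins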
Chain of Ras and Rab interactor 1/Tyrosine-protein kinase ABL1 (P00519 whole entry): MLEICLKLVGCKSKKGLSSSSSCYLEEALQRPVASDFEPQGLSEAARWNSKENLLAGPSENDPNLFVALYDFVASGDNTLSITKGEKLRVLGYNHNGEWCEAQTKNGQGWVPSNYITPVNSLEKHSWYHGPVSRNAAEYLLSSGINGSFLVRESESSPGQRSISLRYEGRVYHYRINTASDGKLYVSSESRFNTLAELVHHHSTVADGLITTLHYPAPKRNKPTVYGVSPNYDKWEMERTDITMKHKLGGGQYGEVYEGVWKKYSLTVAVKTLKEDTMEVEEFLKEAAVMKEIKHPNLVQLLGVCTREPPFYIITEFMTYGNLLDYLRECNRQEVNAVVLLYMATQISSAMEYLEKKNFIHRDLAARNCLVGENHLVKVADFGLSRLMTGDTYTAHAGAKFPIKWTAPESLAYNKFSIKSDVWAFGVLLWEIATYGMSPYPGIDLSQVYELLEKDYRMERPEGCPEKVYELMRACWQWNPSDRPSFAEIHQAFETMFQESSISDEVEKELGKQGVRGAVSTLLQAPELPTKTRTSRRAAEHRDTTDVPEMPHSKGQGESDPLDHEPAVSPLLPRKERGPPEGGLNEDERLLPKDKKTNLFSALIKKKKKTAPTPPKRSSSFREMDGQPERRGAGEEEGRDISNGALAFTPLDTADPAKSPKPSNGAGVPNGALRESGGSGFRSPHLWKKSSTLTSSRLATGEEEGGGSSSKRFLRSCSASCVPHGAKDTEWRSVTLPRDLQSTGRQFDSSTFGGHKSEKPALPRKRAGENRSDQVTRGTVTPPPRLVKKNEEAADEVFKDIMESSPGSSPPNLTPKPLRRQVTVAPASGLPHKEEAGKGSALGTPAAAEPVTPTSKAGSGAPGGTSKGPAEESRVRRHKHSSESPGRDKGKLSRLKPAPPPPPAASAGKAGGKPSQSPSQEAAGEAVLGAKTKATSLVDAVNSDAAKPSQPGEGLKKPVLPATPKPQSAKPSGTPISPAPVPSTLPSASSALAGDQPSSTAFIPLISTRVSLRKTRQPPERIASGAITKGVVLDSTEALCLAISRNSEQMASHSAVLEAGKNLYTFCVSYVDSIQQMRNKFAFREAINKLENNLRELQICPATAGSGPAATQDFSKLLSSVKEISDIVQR
Chain of Ras and Rab interactor 1/Tyrosine-protein kinase ABL1 (Q13671 whole entry): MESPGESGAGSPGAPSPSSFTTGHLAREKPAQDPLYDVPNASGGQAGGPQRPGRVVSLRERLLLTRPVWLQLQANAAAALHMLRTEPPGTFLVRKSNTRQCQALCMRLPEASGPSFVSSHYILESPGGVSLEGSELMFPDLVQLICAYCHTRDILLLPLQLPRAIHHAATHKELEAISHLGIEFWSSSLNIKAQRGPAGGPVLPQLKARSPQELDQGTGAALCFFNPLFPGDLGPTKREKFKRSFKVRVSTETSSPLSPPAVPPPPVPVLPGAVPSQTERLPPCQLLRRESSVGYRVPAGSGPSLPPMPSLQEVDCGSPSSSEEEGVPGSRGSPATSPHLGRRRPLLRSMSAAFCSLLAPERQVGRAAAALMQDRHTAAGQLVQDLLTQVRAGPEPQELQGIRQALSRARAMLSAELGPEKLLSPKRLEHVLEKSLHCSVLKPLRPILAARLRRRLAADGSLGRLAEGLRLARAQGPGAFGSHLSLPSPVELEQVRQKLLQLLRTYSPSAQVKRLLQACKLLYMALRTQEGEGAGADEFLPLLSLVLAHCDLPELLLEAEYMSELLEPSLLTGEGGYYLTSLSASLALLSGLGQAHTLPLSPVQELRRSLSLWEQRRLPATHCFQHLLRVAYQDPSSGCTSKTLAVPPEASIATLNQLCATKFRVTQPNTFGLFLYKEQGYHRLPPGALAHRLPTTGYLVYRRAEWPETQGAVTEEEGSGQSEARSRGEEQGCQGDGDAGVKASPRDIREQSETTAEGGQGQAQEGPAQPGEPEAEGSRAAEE

[7] = biological target: T2, Endoribonuclease toxin MazF; experiment: substrate-only fluorescence increase artefacts – biochemical, single-stranded RNase substrate, counter-screen for MazEF activator project, dose response (AID 588502); format: functional
[8] = biological target: Dual specificity tyrosine-phosphorylation-regulated kinase 1A (Rattus norvegicus, UniProt Q63470); format: biochemical, Homo sapiens
[9] = biological target: T3, Rac GTPase-activating protein 1 (Homo sapiens, UniProt Q9H0H5); experiment: blockers of MgcRacGAP-driven Rac1 GTP hydrolysis – biochemical, ADP Hunter fluorescence, primary and confirmatory, confirmation (AID 624330); format: functional
T3 sequence (Q9H0H5 whole entry): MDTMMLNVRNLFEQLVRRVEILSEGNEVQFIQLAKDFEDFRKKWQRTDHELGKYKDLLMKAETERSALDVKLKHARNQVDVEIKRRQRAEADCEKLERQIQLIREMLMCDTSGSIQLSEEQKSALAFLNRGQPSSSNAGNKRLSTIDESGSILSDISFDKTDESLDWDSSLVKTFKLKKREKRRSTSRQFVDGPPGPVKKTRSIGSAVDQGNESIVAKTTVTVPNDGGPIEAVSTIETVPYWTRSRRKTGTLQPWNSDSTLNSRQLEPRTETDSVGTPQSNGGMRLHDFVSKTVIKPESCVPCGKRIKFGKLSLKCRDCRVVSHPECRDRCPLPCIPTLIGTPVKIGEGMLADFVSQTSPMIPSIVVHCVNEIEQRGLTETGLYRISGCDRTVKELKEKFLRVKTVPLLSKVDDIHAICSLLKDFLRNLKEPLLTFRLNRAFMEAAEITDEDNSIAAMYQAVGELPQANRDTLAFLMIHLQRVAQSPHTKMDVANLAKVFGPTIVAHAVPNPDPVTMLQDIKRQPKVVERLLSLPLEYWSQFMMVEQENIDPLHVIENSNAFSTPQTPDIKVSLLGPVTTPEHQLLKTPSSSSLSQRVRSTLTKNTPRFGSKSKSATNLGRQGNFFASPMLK

[10] = biological target: T4, Short transient receptor potential channel 4 (Mus musculus, UniProt Q9QUQ5); experiment: block of DAMGO-driven TRPC4 calcium entry – cell-based, HEK293 TRPC4/mu-opioid, Fluo-4 calcium, dose response (AID 434942); format: functional;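 note: potency of inhibitors blocking the TRPC4 calcium response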
T4 sequence (Q9QUQ5 whole entry): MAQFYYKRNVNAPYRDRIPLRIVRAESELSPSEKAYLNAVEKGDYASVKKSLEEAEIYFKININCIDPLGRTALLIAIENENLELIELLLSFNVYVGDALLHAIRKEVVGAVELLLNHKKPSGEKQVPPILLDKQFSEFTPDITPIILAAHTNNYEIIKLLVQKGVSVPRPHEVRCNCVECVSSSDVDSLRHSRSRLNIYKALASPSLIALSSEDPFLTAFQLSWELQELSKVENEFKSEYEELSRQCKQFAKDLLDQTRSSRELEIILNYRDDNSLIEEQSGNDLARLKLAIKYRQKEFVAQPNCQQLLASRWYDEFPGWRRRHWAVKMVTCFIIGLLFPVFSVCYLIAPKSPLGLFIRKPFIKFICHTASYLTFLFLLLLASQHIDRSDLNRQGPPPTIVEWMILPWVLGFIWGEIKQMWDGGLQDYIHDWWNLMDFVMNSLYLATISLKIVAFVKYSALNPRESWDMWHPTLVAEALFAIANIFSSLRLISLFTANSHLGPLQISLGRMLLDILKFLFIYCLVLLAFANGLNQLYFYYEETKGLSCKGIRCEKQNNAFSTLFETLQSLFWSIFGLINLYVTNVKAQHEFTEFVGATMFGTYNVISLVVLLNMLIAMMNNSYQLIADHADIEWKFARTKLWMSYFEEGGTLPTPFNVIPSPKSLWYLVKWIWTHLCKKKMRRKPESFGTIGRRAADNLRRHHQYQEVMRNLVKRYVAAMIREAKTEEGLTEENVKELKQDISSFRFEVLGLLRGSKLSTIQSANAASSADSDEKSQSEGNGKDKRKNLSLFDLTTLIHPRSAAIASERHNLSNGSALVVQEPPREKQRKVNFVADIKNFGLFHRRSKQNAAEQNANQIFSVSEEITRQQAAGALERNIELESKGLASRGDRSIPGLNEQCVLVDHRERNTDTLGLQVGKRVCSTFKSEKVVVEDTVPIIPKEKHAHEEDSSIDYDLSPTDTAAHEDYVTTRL

[11] = biological target: FAD-linked sulfhydryl oxidase ALR (Homo sapiens, UniProt P55789); experiment: ALR-catalysed DTT oxidation blockers – biochemical, H2O2 detection, luminescence, cherry-pick, dose response (AID 493248)
Chain of FAD-linked sulfhydryl oxidase ALR (P55789 whole entry): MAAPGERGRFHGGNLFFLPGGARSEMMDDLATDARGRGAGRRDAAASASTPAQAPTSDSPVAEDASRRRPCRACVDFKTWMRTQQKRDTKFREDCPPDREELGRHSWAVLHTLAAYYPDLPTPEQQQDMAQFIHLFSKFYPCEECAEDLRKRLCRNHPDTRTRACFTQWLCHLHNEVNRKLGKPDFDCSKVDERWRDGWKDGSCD

[12] = viability loss in HeLa cells – cytotoxicity control for MgcRacGAP inhibitor project, dose response (AID 624300); format: functional
[13] = biological target: T5, Zinc finger protein mex-5 (Caenorhabditis elegans, UniProt Q9XUB2); experiment: potency of MEX-5 RNA-binding blockers – biochemical, C. elegans, fluorescence polarization, dose response (AID 1960)
T5 sequence (Q9XUB2 whole entry): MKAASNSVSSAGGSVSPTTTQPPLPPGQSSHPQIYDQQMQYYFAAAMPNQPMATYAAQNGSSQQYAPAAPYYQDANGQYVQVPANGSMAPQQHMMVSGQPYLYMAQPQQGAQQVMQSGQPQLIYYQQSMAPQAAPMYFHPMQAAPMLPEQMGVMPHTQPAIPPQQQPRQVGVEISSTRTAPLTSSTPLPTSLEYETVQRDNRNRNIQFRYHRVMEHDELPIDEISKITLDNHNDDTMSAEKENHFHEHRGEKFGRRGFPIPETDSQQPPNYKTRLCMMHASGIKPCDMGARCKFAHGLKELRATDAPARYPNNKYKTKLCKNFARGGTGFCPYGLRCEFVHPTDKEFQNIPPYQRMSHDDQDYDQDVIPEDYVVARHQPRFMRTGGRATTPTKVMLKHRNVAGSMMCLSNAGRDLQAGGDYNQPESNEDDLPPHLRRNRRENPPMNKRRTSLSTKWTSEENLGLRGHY

[14] = biological target: T6, RNA-binding protein pos-1 (Caenorhabditis elegans, UniProt G5EF15); experiment: disruptors of C. elegans POS-1 RNA interaction – biochemical, fluorescence polarization, dose response (AID 1964);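 note: purified POS-1 fused to maltose binding protein made in E. coli; potency of compounds blocking POS-1 binding to fluorescent RNA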
T6 sequence (G5EF15 whole entry): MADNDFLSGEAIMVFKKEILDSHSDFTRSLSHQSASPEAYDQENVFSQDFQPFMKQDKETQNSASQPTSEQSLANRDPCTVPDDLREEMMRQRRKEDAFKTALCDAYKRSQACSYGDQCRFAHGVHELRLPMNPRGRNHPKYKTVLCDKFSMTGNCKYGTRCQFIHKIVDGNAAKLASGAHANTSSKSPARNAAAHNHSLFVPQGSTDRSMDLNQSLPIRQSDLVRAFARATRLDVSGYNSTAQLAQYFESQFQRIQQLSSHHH

[15] = biological target: Transitional endoplasmic reticulum ATPase (Homo sapiens, UniProt P55072, C522A); experiment: C522A mutant p97 ATPase inhibitors, dose response, counter-screen for p97 inhibitor project, biochemical, luminescence (AID 1544)
Chain of Transitional endoplasmic reticulum ATPase (Homo sapiens, UniProt P55072, C522A) (P55072 2-806 C522A limits assumed): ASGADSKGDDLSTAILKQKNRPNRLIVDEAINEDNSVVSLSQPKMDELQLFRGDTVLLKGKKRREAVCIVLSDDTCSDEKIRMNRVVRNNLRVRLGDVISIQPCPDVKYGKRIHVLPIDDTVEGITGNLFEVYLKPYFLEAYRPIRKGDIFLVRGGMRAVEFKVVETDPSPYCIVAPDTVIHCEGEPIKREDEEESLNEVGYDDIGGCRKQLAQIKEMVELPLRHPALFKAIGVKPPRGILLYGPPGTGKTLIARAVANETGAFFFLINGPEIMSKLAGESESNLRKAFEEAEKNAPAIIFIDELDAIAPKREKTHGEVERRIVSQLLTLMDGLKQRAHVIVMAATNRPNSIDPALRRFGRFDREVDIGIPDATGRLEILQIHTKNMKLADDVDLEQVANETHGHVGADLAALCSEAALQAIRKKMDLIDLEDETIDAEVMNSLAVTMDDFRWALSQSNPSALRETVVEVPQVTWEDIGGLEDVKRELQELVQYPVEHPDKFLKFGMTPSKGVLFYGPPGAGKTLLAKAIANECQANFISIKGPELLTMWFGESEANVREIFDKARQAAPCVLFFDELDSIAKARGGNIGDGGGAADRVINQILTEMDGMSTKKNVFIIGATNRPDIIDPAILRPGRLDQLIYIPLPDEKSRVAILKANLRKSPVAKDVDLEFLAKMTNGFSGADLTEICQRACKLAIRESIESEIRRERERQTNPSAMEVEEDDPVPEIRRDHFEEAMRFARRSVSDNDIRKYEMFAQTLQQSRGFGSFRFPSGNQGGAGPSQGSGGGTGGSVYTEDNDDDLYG

[16] = biological target: Transitional endoplasmic reticulum ATPase (Homo sapiens, UniProt P55072); experiment: p97 ATPase inhibitors, dose response, biochemical (AID 1534)
Chain of Transitional endoplasmic reticulum ATPase (Homo sapiens, UniProt P55072) (P55072 whole entry): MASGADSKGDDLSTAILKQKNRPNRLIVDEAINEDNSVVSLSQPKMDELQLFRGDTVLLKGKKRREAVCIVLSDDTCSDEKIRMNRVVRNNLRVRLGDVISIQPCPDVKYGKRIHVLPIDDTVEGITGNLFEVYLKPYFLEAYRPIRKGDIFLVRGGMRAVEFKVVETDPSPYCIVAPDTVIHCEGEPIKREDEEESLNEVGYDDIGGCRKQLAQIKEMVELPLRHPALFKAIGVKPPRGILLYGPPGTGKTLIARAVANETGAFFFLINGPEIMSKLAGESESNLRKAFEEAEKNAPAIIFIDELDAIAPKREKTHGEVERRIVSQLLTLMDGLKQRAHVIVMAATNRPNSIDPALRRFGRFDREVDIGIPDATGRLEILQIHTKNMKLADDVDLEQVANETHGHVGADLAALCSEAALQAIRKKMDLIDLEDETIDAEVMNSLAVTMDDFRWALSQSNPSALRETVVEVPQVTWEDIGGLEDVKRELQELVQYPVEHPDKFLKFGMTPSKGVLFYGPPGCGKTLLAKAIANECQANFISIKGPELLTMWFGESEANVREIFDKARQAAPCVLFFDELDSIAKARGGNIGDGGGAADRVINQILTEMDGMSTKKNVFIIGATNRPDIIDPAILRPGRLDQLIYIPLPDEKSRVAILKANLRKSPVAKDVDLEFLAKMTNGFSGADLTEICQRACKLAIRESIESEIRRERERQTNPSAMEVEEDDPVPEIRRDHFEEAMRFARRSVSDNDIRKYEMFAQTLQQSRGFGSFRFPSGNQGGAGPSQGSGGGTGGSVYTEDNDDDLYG

With `FC(F)(F)c1nc(N2CCN(c3ccccc3)CC2)nc2c1CCCCC2` the EC50 (Streptococcus [1]) was > 150 µM (not active), the EC50 (Streptococcus [2]) was > 500 µM (not active) and the EC50 (Streptokinase A) was 5.5 µM (active). The EC50 [3] was 2.83 µM (active).

In the case of `COc1ccc(S(=O)(=O)c2nnn3c2[nH]c(=O)c2ccccc23)cc1`, the IC50 (Staphylococcus aureus) is reported as 563 nM (active).

In the case of `O=c1c(O)c(-c2ccc(O)c(O)c2)oc2cc(O)ccc12`, the AC50 [4] is reported as 1.69 µM (active), the EC50 [5] is reported as > 99 µM (inactive) and the IC50 [6] is reported as > 73.5 µM (inactive). The EC50 [7] was > 99 µM (inactive), the AC50 [8] was 248 nM (active) and the IC50 [9] was 45.7 µM (active).

For `NS(=O)(=O)c1ccc(Nc2nc(-c3ccc(O)cc3O)cs2)cc1`, the EC50 [10] was 1.33 µM (active), the AC50 [11] was 3.12 µM (active) and the CC50 [12] was 100 µM (active). For the same compound, the EC50 [13] was 9.7 µM (active), the AC50 [8] was 1940 nM (active) and the IC50 [9] was 44.5 µM (active). The EC50 [14] was 17.1 µM (active), the IC50 [15] was > 50 µM (not active) and the IC50 [16] was 24.2 µM (not active).
